“Also recorded” adds a separate entry of the source.
Key:
[1] = test system: K-Ras G12V responder T cells; experiment: IFN-γ ELISPOT: peptide-loaded HLA-A*11+ human PBMCs co-cultured with K-Ras G12V responder T cells; type: cell-based
[2] = test system: K-Ras G12V responder T cells; experiment: as above; type: cell-based; settings: for IFN-γ expressing K-Ras-G12V responder T cells upon co-culture: HLA-A*11+ human PBMCs SQZ-loaded with 100 μM SLP; for IFN-γ secretion by K-Ras-G12V responder T cells upon co-culture: Example 4, FIG. 4, HLA-A*11+ human PBMCs (donor 296) SQZ-loaded with 100 μM SLP
Protocol: (§1) Human PBMCs from HLA-A*11^+ donor (donor 296) were prepared at a density of 10×10^6/mL, SQZ processed at room temperature through a constriction of 4.5 μm width, 10 μm length and 70 μm depth at 60 psi with 100 μM of the respective K-Ras synthetic long peptide (G12V^1-16, G12V^2-19) or with vehicle control (DMSO) in RPMI medium. Following SQZ-processing, the SQZ-loaded PMBCs were centrifuged, and the supernatant was discarded. The cells were subsequently washed once in R10 medium (RPMI+10% FCS+1% Pen/Strep), then washed twice in CTL medium (supplemented with 1% glutamine), before resuspension in fresh CTL medium (supplemented with 1% glutamine).
(§2) 2×10^5 SQZ-loaded PBMCs were then placed in co-culture with 5×10^4 K-Ras G12V responder T cells (generated in transgenic mice) in an IFN-γ ELISPOT plate. As a positive control, 10 μM K-Ras G12V^7-16 peptide containing the minimal epitope was added directly to untreated PBMCs and responder cells in the ELISPOT plate (peptide spike). The plate was incubated overnight at 37° C. and then developed/quantified according to manufacturer's instructions.
as §1, with “donor” for “donor (donor 296)”, “constriction with” for “constriction of”, “peptide (K-Ras G12V^3-17, K-Ras G12V^3-42)” for “peptide (G12V^1-16, G12V^2-19)”, “medium. An irrelevant synthetic long peptide (HPV-E7.6) was used as a negative control.” for “medium.”
as §1, with “donor” for “donor (donor 296)”, “10× 10^6/mL,” for “10×10^6/mL,”, “(wild type K-Ras^1-16, G12V^1-16, wild type K-Ras^2-22, or G12V^2-22)” for “(G12V^1-16, G12V^2-19)”
as §1, with “donor” for “donor (donor 296)”, “of a single” for “of the respective”, “peptide (G12V^1-16” for “peptide (G12V^1-16, G12V^2-19)”, “or G12V^2-19), or a combination of two K-Ras synthetic long peptides which are each at 100 μM (G12V^1-16 plus G12D^1-16 or G12V^2-19 plus G12D^1-16) or” for “or with”, “glutamine). […]” for “glutamine).”

[3] = test system: K-Ras G12D responder T cells; experiment: IFN-γ ELISPOT: peptide-loaded HLA-A*11+ human PBMCs co-cultured with K-Ras G12D responder T cells; type: cell-based, transgenic mice; settings: for IFN-γ expressing by K-Ras-G12D responder T cells upon co-culture: Example 1, FIG. 1, vehicle control DMSO, overnight 37° C.; for IFN-γ expressing responder T cells upon co-culture: PBMCs incubated with 100 μM SLP at room temperature without SQZ (Endo-G12D); for IFN-γ secretion by K-Ras-G12D responder T cells upon co-culture: Example 3, FIG. 3, HLA-A*11+ human PBMCs (donor 339) SQZ-loaded with 100 μM SLP
Protocol: as §1, with “donor” for “donor (donor 296)”, “and SQZ-processed” for “SQZ processed”, “K-Ras G12D” for “K-Ras”, “(either G12D^1-16, G12D^2-19, G12D^2-22, G12D^2-29)” for “(G12V^1-16, G12V^2-19)”, “PBMCs” for “PMBCs”
as §2, with “G12D” for “G12V”, “G12D^7-16” for “G12V^7-16”
as §1, with “donor” for “donor (donor 296)”, “10×10^6/mL, and” for “10×10^6/mL,”, “(either wild type K-Ras^1-16 or K-Ras-G12D^1-16)” for “(G12V^1-16, G12V^2-19)”, “glutamine). […]” for “glutamine).”
as §1, with “339)” for “296)”, “(either wild type K-Ras^2-22 or K-Ras G12D^2-22)” for “(G12V^1-16, G12V^2-19)”, “glutamine). […]” for “glutamine).”
2×10^5 of either the SQZ-loaded PBMCs (SQZ-G12D) or SLP-incubated PBMCs (Endo-G12D), or an equal volume of the fluid phase solution (FF-G12D) were then placed in co-culture with 5×10^4 K-Ras G12D responder T cells (generated in transgenic mice) in an IFN—Y ELISPOT plate. As a positive control, 10 μM K-Ras G12D^7-16 peptide containing the minimal epitope was added directly to untreated PBMCs and responder cells in the ELISPOT plate (spike). 10 μM wild type K-Ras^7-16 peptide was added to PBMCs and responder as another […] (spike). The plate was incubated overnight at 37° C. and then developed/quantified according to manufacturer's instructions.

[4] = HLA-A*11+ human PBMCs SQZ-loaded with 100 μM SLP
[5] = Example 2, FIG. 2, HLA-A*11+ human PBMCs SQZ-loaded with 100 μM SLP, compared to vehicle control
[6] = Example 6, FIG. 6, compared to vehicle control

EYKLVVVGAVGVGKS [G12V^3-17, K-Ras G12V synthetic long peptide, residues 3-17]
IFN-γ expressing K-Ras-G12V responder T cells upon co-culture ([1]; Example 5, FIG. 5, HLA-A*11+ human PBMCs SQZ-loaded with 100 μM SLP, listed as K-Ras-G12V^3-17): increased amount | IFN-γ expressing K-Ras-G12V responder T cells upon co-culture ([2]; Example 5, FIG. 5): significant increases

EYKLVVVGAVGVGKSALTIQLIQNHFVDEYDPTIEDSYRK [G12V^3-42, K-Ras G12V synthetic long peptide, residues 3-42]
IFN-γ expressing K-Ras-G12V responder T cells upon co-culture ([1]; Example 5, FIG. 5, HLA-A*11+ human PBMCs SQZ-loaded with 100 μM SLP, listed as K-Ras-G12V^3-42): increased amount | IFN-γ expressing K-Ras-G12V responder T cells upon co-culture ([2]; Example 5, FIG. 5): significant increases

MTEYKLVVVGADGVGK [G12D^1-16, K-Ras G12D synthetic long peptide, residues 1-16]
IFN-γ expressing by K-Ras-G12D responder T cells upon co-culture [3, 4]: increased amount; also recorded: significant increases | IFN-γ expressing K-Ras-G12D responder T cells upon co-culture [3, 5]: significant increases | IFN-γ expressing K-Ras-G12D responder T cells upon co-culture ([3]; Example 2, FIG. 2, HLA-A*11+ human PBMCs SQZ-loaded with 100 μM SLP, compared to vehicle control, listed as K-Ras-G12D^1-16): increased amount | IFN-γ expressing K-Ras-G12D responder T cells upon co-culture ([3]; Example 7, FIG. 7, HLA-A*11+ human PBMCs SQZ-loaded with one SLP or a combination of two SLPs, each at 100 μM): significant increases | IFN-γ expressing K-Ras G12D responder T cells upon co-culture ([3]; Example 10, FIG. 10, HLA-A*11+ human PBMCs SQZ-loaded with 100 μM SLP (SQZ-G12D), listed as K-Ras-G12D^1-16): significant increases; also recorded: increased amount | IFN-γ expressing responder T cells upon co-culture ([3]; Example 10): did not result in increase

MTEYKLVVVGAVGVGK [G12V^1-16, K-Ras G12V synthetic long peptide, residues 1-16]
IFN-γ expressing K-Ras-G12V responder T cells upon co-culture ([1]; Example 8, FIG. 8, HLA-A*11+ human PBMCs SQZ-loaded with one SLP or a combination of two SLPs, each at 100 μM): significant increases | IFN-γ secretion by K-Ras-G12V responder T cells upon co-culture [2]: significantly increased | IFN-γ secretion by K-Ras-G12V responder T cells upon co-culture ([2]; listed as K-Ras-G12V^1-16): increased amount | IFN-γ expressing K-Ras-G12V responder T cells upon co-culture [2, 6]: significant increases | IFN-γ expressing K-Ras-G12V responder T cells upon co-culture ([2]; Example 6, FIG. 6, compared to vehicle control, listed as K-Ras-G12V^1-16): increased amount

TEYKLVVVGADGVGKSAL [G12D^2-19, K-Ras G12D synthetic long peptide, residues 2-19]
IFN-γ expressing by K-Ras-G12D responder T cells upon co-culture [3, 4]: increased amount; also recorded: significant increases

TEYKLVVVGADGVGKSALTIQ [G12D^2-22, K-Ras G12D synthetic long peptide, residues 2-22]
IFN-γ expressing by K-Ras-G12D responder T cells upon co-culture [3, 4]: increased amount; also recorded: significant increases | IFN-γ secretion by K-Ras-G12D responder T cells upon co-culture ([3]; compared to vehicle control): significantly increased | IFN-γ secretion by K-Ras-G12D responder T cells upon co-culture ([3]; compared to vehicle control, listed as K-Ras-G12D^2-22): increased amount

TEYKLVVVGADGVGKSALTIQLIQNHFV [G12D^2-29, K-Ras G12D synthetic long peptide, residues 2-29]
IFN-γ expressing by K-Ras-G12D responder T cells upon co-culture [3, 4]: increased amount; also recorded: significant increases | IFN-γ expressing K-Ras G12D responder T cells upon co-culture ([3]; Example 10, FIG. 10, HLA-A*11+ human PBMCs SQZ-loaded with 100 μM SLP (SQZ-G12D), listed as K-Ras-G12D^2-29): significant increases; also recorded: increased amount | IFN-γ expressing responder T cells upon co-culture ([3]; Example 10): did not result in increase

VVVGADGVGK [K-Ras G12D^7-16, positive control peptide spike, reference compound]
IFN-γ expressing K-Ras G12D responder T cells upon co-culture ([3]; Example 10, 10 μM peptide added directly to untreated PBMCs and responder cells (peptide spike, positive control)): significant increases

wild type K-Ras^1-16: wild type K-Ras synthetic long peptide, residues 1-16; mutation-specificity comparator (MTEYKLVVVGAGGVGK; UniProt P01116 1-16, looked up, fragment) [reference compound]
IFN-γ expressing K-Ras-G12D responder T cells upon co-culture [3, 5]: did not elicit increases | IFN-γ expressing K-Ras-G12V responder T cells upon co-culture [2, 6]: did not elicit increases
